Assay [1] deals with Subnormal activation of pyruvate dehydrogenase complex (PDH) primary fibroblasts GM01503 (GM1503A). Description: Total NAD+ + NADH and NAD+ (NAD/NADH-Glo), PDH fibroblasts GM01503. Type of assay: cell-based. The settings on record: Homo sapiens, Fibroblast, 24h, read-out: Increase in Total NAD+ + NADH. As to the method: (§1) Primary adherent fibroblasts were cultured in minimum essential medium (MEM) (Gibco, 25030081) supplemented with 2 mM L-Glutamine (Gibco, 25030081), 15% fetal bovine serum (FBS) (Gibco, 26400044) and 1% penicillin/streptomycin (Gibco, 5140122) at 37° C. and 5% CO2. Cells were collected for either passaging or experiment at ˜70-80% confluence. Cells were obtained by trypsinization and seeded in cell culture microplates either white plate (Thermo Fisher Scientific, 152028) for luminescent measurement or black plate (Thermo Fisher Scientific, 165305) for fluorescent based read out for different assays listed below. Cells were obtained by trypsinization and […] were seeded and allowed to adhere for 16-18 hours to have confluency around 70-80% in the cell well with culture media. After 24 hours prior to measurements (37° C., 5% CO2) media was changed to Dulbecco's Modified Eagle Medium (DMEM, Agilent Seahorse cat #103575-100) with the appropriate supplements as stated below.
(§2) Primary fibroblasts assayed were Propionic Acidemia (PA) (GM03590 Coriell Institute for Medical Research, Tsi 6337 Trans-Hit Bio), Methylmalonic Acidemia (MMA) (Tsi 5224 Trans-Hit Bio), Subnormal activation of pyruvate dehydrogenase complex (PDH) (GM01503 Coriell Institute for Medical Research), Very long-chain acyl-CoA dehydrogenase (VLCAD) (GM17475), Leigh Syndrome (LS) (GM03672, GM13411 Coriell Institute for Medical Research), Pyruvate Carboxylase Deficiency (PC) (GM00444 Coriell Institute for Medical Research). 10 μM of Compounds were added for 2 hours in PA, MMA lines and for 24h for the other fibroblast lines.
Assay was performed according to manufacturer instructions (NAD/NADH-Glo Assay Promega, G9072). The NAD/NADH-Glo Assay is a bioluminescent assay for detecting total oxidized and reduced nicotinamide adenine dinucleotides (NAD+ and NADH, respectively) from which ratio of NAD/NADH can be calculated. Briefly, for every assay a 12-point standard curve was prepared ranging from 400 nM to 0.625 nM. Media was removed and replaced with 50 μl of PBS for both assays.
For individual NAD+ and NADH measurement, 50 μl of 1% DTAB (Sigma Cat #D5047) (cell lysis reagent) in 0.2N NaOH was added to the plate and a total 100 μl of lysate was split into two plates with 50 μl each. 25 μl of 0.4N HCl were added to the NAD+ plate and both NAD+ and NADH plate were heated at 60° C. for 15 minutes. The acid and heat treatment destroyed NADH allowing individual NAD+ measurement while heating in basic conditions destroys NAD+ allowed individual NADH measurements. The plates were allowed to come to room temperature for 10 minutes and Trizma base (Sigma, T1699) was added to the NAD+ plate to neutralize the acid and HCl Trizma hydrochloride (Sigma, T2694) was added to the NADH plate. The NADNADH glo reagent was prepared by adding: 625 μl of NAD cycling substrate, 125 μl of reductase, 125 μl of reductase substrate, 125 μl NAD cycling enzyme to total of the 25 ml of NAD GLO reagent. 1:1 ratio of total volume of reagent was added to the individual NAD+, NADH measurement (total 100 μl) and 50 μl for total NAD/NAH measurement. Luminescence was read between 30-60 minutes within the linear range.
(§3) A total dead cell count was performed as described in Example 817 and only alive cells were used for analysis.

The subject of assay [2] is Subnormal activation of pyruvate dehydrogenase complex (PDH) primary fibroblasts GM01503. Description: NADP+/NADPH (NADP/NADPH-Glo), PDH fibroblasts GM01503. It counts as cell-based. Conditions: Homo sapiens, Fibroblast, PDH GM01503 P10, assay condition A (10 mM glucose, 2 mM L-glutamine, 1 mM pyruvate, 10% FBS), 24h, read-out: Increase in Total NADP+ + NADPH. Here is the method: as §1, §2
Assay was performed according to manufacturer instructions (NADP+/NADPH-Glo Assay Promega, G9082). Assay required a plate for total measurement of NADP+/NADPH and a plate for individual measurement of NADP+ or NADPH. For every assay a 12-point standard curve is prepared ranging from 400 nM to 0.625 nM. Media is removed and replaced with 50 μl of PBS for both assays.
For individual NADP+/NADPH measurements, 50 μl of 1% DTAB (Sigma, D5047) (cell lysis reagent) in 0.2N NaOH was added to the plates and 100 μl of lysate was split into two plates with 50 μl each from which ratio of NADP/NADPH can be calculated. 25 μl of 0.4N HCl were added to the NADP+ plates and both NADP+ and NADPH plates were heated at 60° C. for 15 minutes. The acid and heat treatment destroyed NADPH allowing individual NADP+ measurements while heating in basic conditions destroys NADP+ allowing individual NADPH measurement. After 15 minutes plates were allowed to come to room temperature and Trizma base (Sigma, T1699) was added to the NADP+ plates to neutralize the acid and HCl Trizma hydrochloride (Sigma, T2694) was added to the NADPH plates. The NADNADPH glo reagent was prepared by adding 125 μl of NAD cycling substrate, 125 μl of reductase, 125 μl of reductase substrate, 125 μl NAD cycling enzyme to a total of the 25 ml of NAD GLO reagent. 1:1 ratio of total volume of reagent was added to the individual NADP+, NADPH measurements (total 100 μl) and 50 μl were added for the total NAD/NADPH measurements. Luminescence was measured for 30-60 minutes within the linear range.
as §3

The subject of assay [3] is Venular Endothelial cells (HUVEC) (4H system). Description: BioMAP 4H system (IL-4 and histamine). It counts as cell-based, human. The settings on record: procedure of Example 826; for inhibition at 1 µM / inhibition at 10 µM: Homo sapiens, HUVEC, 24 h.
Assay [4] deals with Bronchial epithelial cells co-cultured with dermal fibroblast (BF4T system). In words: BioMAP BF4T system (TNFα and IL-4). Type of assay: cell-based, human. Conditions: for activation at 10 µM: Homo sapiens, 24 h, read-out: % increase in VCAM-1.
The test system of assay [5] is Bronchial epithelial cells (BE3C system). In words: BioMAP BE3C system (IL-1β, TNFα, IFNγ). Conditions: procedure of Example 831. It counts as cell-based, human.
Assay [6] concerns Coronary artery smooth muscle cells (CASM3C system). Description: BioMAP CASM3C system (IL-1β, TNFα, IFNγ). Type of assay: cell-based, human.
Assay [7] relates to Peripheral blood mononuclear cells co-cultured with B-cells (BT system). In words: cells. The settings on record: Homo sapiens, 72 h, read-out: % increase in sIL-6.
Where [8] appears, read: PDH GM1503A P10, assay condition A.
The mark [9] stands for this setting: PDH GM1503A P10, assay condition B.
[10] abbreviates: 10 uM, procedure of Example 830.
[11] abbreviates: 10 uM, procedure of Example 832.

Molecules are shown by their SMILES. Like-named read-outs stand apart in the source and are kept apart here.

`CC(O)C(C(=O)SCCNC(=O)CCNC(=O)[C@H](O)C(C)(C)CO)C(C)O` (stereo partly drawn) [Compound 1285, (2R)-2,4-dihydroxy-N-[2-[(2-[[3-hydroxy-2-(1-hydroxyethyl)butanoyl]sulfanyl]ethyl)carbamoyl]ethyl]-3,3-dimethylbutanamide]: the activation at 10 µM in assay [1] (setting [8]) and in assay [2] was at least 10% in each case.

Consider `COC(=O)CC(C(C)=O)C(=O)SCCNC(=O)CCNC(=O)[C@H](O)C(C)(C)CO` (stereo partly shown) [Compound 410], for which the activation at 10 µM in assay [2] is at least 10%.

Consider `CC(=O)OCC(C)(C)[C@@H](O)C(=O)NCCC(=O)NCCSC(=O)CC(=O)CCC(=O)O` [Compound 140, 6-[(2-[3-[(2R)-4-(acetyloxy)-2-hydroxy-3,3-dimethylbutanamido]propanamido]ethyl)sulfanyl]-4,6-dioxohexanoic acid], for which the activation at 10 µM in assay [1] (setting [8]) and in assay [2] was at least 10% each time.

With `CC(=O)SCCNC(=O)CCNC(=O)[C@H](O)C(C)(C)COC(=O)CN` [Compound 560, (3R)-3-[(2-[[2-(acetylsulfanyl)ethyl]carbamoyl]ethyl)carbamoyl]-3-hydroxy-2,2-dimethylpropyl 2-aminoacetate], in assay [1] (setting [8]), the activation at 10 µM is at least 10%.

As to `C[C@H](O)CC(=O)CC(=O)SCCNC(=O)CCNC(=O)[C@H](O)C(C)(C)CO` [Compound 1306, (2R)-2,4-dihydroxy-N-[2-[(2-[[(5S)-5-hydroxy-3-oxohexanoyl]sulfanyl]ethyl)carbamoyl]ethyl]-3,3-dimethylbutanamide], the activation at 10 µM in assay [1] (setting [9]) and in assay [2] was at least 10% in each case.

For the compound `C[C@@H](O)CC(=O)SCCNC(=O)CCNC(=O)[C@H](O)C(C)(C)CO` [Compound 38, S-2-{3-[(R)-2,4-dihydroxy-3,3-dimethylbutyrylamino]propionylamino} ethyl (R)-3-hydroxybutanethioate], the activation at 10 µM in assay [2] is at least 10%.

On to `CC(C)(CO)[C@@H](O)C(=O)NCCC(=O)NCCSC(=O)CCCO` [Compound 1304, (2R)-2,4-dihydroxy-N-[2-([2-[(4-hydroxybutanoyl)sulfanyl]ethyl]carbamoyl)ethyl]-3,3-dimethylbutanamide], for which the activation at 10 µM in assay [1] (setting [9]) and in assay [2] was at least 10% each time.

As to `COC(=O)CCC(=O)SCCNC(=O)CCNC(=O)[C@H](OC(=O)CNC(C)=O)C(C)(C)CO` [Compound 1298, methyl 4-[(2-[3-[(2R)-2-[(2-acetamidoacetyl)oxy]-4-hydroxy-3,3-dimethylbutanamido]propanamido]ethyl)sulfanyl]-4-oxobutanoate], in assay [3] (1 uM), the “% decrease in Eotaxin-3” value is given as at least 10% and the “% decrease in MCP-1” value was at least 10%. Besides, the inhibition at 1 µM in assay [3] (1 uM, read-out: % decrease in VEGFRII) was at least 10%. For the same compound, the activation at 10 µM in assay [4] (setting [10]) was at least 10%. Besides, the inhibition at 10 µM in assay [5] (Homo sapiens, Epithelial cell, 24 h, 10 uM, read-out: % decrease in MMP-1) is at least 10%. Further, in assay [6] (1 uM), the “% decrease in uPAR” value is on record as at least 10%. In assay [6] (1 uM, procedure of Example 832), the “% decrease in LDLR” value was at least 10% and the “% decrease in VCAM-1” value was at least 10%. Also, the “% increase in Proliferation” value in assay [6] (setting [11]) was at least 10%. In addition, the inhibition at 10 µM in assay [6] (Homo sapiens, 24 h, 10 uM, read-out: % decrease in Thrombomodulin) was at least 20%. Besides, in assay [7], the activation at 1 µM was at least 10%.

For `CC(=O)SCCNC(=O)CCNC(=O)[C@H](O)C(C)(C)COC(=O)[C@@H](N)Cc1ccc(O)c(O)c1` [Compound 498, (3R)-3-[(2-[[2-(acetylsulfanyl)ethyl]carbamoyl]ethyl)carbamoyl]-3-hydroxy-2,2-dimethylpropyl (2S)-2-amino-3-(3,4-dihydroxyphenyl)propanoate], the inhibition at 1 µM in assay [3] (1 uM, read-out: % decrease in E-Selectin) was at least 10%. Besides, the inhibition at 10 µM in assay [3] (10 uM, read-out: % decrease in VEGFRII) was at least 10%. Moreover, in assay [4] (1 uM, procedure of Example 830), the “% increase in 1L-8” value is given as at least 10% and the “% increase in MCP-1” value was at least 10%. In assay [4] (10 uM), the “% decrease in IL-1α” value was at least 10%. Further, in assay [4] (setting [10]), the “% increase in Eotaxin-3” value was at least 10%, the “% increase in MMP-9” value is at least 10% and the activation at 10 µM was at least 10%. In addition, in assay [5] (1 uM), the “% increase in MMP-1” value is at least 10%. The “% decrease in tPA” value in assay [5] (10 uM) is at least 10%. Also, the “% increase in IL-6” value in assay [6] (1 uM, procedure of Example 832) was at least 10%. In assay [7], the activation at 10 µM was at least 10%.

Turning to `C[C@@H](O)CC(=O)CC(=O)SCCNC(=O)CCNC(=O)[C@H](O)C(C)(C)CO` [Compound 42, (2R)-2,4-dihydroxy-N-[2-[(2-[[(5R)-5-hydroxy-3-oxohexanoyl]sulfanyl]ethyl)carbamoyl]ethyl]-3,3-dimethylbutanamide], the activation at 10 µM in assay [2] was at least 10%. The “% decrease in Eotaxin-3” value in assay [3] (1 uM) is recorded as at least 10%. Further, in assay [3] (10 uM), the “% increase in MCP-1” value is reported as at least 10% and the “% increase in VEGRII” value was at least 10%. Besides, the inhibition at 10 µM in assay [3] (10 uM, read-out: % decrease in E-Selectin) was at least 10%. Further, in assay [4] (10 uM), the “% decrease in IL-1α” value was at least 10%. Further, in assay [4] (setting [10]), the “% increase in Eotaxin-3” value is at least 10%, the “% increase in MMP-3” value is recorded as at least 10%, the “% increase in keratin 8/18” value was at least 10% and the activation at 10 µM is at least 10%. In addition, in assay [5] (10 uM), the “% decrease in Keratin 8/18” value was at least 1.0%, the “% decrease in MMP-9” value was at least 10% and the “% decrease in tPA” value is reported as at least 10%. Further, in assay [6] (setting [11]), the “% increase in M-CSF” value is on record as at least 10% and the “% increase in Proliferation” value is recorded as at least 10%.

Source of the values: US20230107216A1, “PANTETHEINE DERIVATIVES AND USES THEREOF” (Comet Therapeutics, Inc., priority 2018, published 2023).
